Here are results for nine compounds from ChEMBL document CHEMBL6120936, “Autophagy modulation in cancer therapy: Challenges coexist with opportunities” (Eur J Med Chem, 2024).

Test [1] in a line: Agonist activity at AMPK (unknown origin). Further details: species or system Homo sapiens.
For test [2], the target named is Mitogen-activated protein kinase 3 (Homo sapiens, UniProt P27361). Description: Inhibition of ERK1 (unknown origin).
In test [3] the target is T1, Serine/threonine-protein kinase ULK1 (Homo sapiens, UniProt O75385).
T1 sequence (O75385 whole entry): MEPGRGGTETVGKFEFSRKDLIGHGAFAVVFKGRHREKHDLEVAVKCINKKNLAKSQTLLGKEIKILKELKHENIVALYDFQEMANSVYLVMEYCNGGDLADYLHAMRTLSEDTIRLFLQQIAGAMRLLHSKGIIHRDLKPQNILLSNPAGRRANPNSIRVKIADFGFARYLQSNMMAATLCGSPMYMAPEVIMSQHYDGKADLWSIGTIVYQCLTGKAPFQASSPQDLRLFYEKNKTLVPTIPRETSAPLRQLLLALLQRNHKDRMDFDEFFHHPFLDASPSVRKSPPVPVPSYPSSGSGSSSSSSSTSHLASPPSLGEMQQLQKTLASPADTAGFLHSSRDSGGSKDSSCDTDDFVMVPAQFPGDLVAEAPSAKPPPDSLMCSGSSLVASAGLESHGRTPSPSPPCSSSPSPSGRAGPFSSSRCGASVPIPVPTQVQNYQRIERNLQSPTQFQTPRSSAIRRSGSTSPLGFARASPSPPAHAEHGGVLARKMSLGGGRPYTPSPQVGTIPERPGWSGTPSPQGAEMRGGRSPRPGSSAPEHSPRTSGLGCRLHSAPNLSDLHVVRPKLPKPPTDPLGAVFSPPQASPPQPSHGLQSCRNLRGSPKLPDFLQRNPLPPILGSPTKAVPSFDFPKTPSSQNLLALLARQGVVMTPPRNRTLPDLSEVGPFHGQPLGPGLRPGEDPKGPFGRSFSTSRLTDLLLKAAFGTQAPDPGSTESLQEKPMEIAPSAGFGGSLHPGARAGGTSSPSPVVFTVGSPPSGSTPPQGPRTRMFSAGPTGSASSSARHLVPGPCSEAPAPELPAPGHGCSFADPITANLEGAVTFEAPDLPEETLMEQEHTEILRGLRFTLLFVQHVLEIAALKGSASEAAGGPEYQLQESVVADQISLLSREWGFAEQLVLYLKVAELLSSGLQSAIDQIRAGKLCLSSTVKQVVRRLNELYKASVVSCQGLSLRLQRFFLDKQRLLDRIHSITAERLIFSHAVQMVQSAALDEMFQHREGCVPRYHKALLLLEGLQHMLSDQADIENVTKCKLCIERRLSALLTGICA
Description: Agonist activity at ULK1 (unknown origin).

Test [4] is described as follows: Binding affinity to AMPK (unknown origin) assessed as inhibition constant. Further details: species or system Homo sapiens.
Test [5] addresses T2, Serine/threonine-protein kinase ULK2 (Homo sapiens, UniProt Q8IYT8).
T2 sequence (Q8IYT8 whole entry): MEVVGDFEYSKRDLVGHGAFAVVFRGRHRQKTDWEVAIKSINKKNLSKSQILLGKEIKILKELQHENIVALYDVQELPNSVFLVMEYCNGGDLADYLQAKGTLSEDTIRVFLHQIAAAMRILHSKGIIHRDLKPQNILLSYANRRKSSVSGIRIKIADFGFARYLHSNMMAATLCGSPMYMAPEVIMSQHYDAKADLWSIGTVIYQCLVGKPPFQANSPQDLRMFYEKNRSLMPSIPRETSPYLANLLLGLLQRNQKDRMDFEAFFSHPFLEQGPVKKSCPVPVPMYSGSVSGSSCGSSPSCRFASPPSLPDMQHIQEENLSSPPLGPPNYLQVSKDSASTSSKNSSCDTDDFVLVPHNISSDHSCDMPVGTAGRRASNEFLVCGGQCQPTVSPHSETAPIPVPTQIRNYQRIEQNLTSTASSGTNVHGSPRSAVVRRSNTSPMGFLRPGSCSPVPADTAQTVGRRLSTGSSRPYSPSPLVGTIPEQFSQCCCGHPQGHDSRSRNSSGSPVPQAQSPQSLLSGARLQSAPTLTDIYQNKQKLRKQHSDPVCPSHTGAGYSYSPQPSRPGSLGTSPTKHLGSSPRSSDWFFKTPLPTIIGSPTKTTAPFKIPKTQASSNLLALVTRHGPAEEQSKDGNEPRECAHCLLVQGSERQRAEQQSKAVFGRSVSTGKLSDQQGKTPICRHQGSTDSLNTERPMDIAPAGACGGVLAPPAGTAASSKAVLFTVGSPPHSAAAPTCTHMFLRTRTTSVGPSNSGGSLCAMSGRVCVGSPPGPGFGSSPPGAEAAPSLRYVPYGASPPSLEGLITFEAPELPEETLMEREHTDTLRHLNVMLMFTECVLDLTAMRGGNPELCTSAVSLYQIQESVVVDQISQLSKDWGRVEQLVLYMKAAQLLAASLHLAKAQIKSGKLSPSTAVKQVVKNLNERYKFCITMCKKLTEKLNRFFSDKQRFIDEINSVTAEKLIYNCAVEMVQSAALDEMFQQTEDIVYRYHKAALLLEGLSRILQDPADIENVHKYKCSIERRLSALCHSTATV
The test is described as follows: Inhibition of ULK2 (unknown origin).

Test [6] has as its target Phosphatidylinositol 4,5-bisphosphate 3-kinase catalytic subunit alpha isoform (Homo sapiens, UniProt P42336). Description: Inhibition of PI3K-p110alpha (unknown origin) extracted from baculovirus-infected Sf9 cells incubated for 1 hr by microbeta counter analysis.
Test [7] concerns the target Phosphatidylinositol 4,5-bisphosphate 3-kinase catalytic subunit gamma isoform (Homo sapiens, UniProt P48736). Description: Inhibition of PI3K p120gamma (unknown origin).
The target of test [8] is T3, Phosphatidylinositol 4,5-bisphosphate 3-kinase catalytic subunit delta isoform (Homo sapiens, UniProt O00329).
T3 sequence (O00329 whole entry): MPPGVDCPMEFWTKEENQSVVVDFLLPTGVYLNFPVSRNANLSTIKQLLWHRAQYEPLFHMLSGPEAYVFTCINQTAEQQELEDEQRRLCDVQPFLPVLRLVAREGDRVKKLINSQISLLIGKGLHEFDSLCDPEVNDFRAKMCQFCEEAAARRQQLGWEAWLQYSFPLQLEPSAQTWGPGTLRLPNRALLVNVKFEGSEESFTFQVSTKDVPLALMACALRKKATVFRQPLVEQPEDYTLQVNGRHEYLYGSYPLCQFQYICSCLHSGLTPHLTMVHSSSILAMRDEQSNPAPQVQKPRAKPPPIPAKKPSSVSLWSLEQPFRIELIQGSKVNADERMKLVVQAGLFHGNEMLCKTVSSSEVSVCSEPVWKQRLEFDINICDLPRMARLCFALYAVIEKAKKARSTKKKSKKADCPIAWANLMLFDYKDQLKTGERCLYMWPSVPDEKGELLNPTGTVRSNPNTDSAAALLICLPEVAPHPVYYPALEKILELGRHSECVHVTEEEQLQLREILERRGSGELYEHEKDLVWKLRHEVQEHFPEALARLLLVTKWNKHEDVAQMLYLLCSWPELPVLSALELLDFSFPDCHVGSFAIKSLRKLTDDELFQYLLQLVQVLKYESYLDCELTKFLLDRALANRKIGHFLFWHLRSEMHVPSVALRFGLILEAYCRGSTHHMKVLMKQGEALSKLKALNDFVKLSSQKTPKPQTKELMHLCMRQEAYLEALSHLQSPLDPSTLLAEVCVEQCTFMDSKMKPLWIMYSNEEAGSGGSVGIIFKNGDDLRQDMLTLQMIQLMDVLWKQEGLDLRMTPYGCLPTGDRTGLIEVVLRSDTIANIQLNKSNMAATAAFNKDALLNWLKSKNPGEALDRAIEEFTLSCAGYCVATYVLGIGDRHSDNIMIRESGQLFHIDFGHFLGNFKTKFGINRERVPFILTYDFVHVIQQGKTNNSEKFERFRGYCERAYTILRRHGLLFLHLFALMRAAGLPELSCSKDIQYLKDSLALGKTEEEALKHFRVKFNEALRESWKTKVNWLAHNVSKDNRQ
The test is described as follows: Inhibition of PI3Kdelta (unknown origin).

Phosphatidylinositol 4,5-bisphosphate 3-kinase catalytic subunit alpha isoform, sequence (P42336 whole entry, canonical isoform): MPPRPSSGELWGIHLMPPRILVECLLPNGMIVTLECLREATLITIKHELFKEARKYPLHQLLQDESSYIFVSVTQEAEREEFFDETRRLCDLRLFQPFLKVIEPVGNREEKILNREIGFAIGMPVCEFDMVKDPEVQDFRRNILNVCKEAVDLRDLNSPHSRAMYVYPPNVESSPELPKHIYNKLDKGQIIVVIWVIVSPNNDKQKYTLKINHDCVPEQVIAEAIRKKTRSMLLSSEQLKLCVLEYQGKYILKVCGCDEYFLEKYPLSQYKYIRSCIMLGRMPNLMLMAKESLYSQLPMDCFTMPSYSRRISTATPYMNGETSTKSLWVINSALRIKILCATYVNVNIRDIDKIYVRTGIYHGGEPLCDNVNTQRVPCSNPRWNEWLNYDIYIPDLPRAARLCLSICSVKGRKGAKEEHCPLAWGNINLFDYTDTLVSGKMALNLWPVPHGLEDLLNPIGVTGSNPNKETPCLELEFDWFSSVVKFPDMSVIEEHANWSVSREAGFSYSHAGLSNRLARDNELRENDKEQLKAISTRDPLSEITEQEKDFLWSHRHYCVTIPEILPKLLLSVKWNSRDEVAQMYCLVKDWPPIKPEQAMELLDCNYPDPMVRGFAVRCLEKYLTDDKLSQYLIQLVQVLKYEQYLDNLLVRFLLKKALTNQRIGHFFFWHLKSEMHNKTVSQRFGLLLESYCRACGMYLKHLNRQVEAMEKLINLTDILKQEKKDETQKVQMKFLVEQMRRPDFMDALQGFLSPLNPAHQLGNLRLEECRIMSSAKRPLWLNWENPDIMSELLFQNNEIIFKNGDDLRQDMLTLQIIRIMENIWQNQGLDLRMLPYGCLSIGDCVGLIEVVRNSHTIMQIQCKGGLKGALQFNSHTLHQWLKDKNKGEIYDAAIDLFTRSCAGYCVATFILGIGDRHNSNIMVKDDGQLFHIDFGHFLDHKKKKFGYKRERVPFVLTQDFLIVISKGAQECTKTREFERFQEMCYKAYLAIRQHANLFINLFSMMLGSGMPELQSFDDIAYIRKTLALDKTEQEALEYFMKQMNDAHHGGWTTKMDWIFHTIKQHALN
Phosphatidylinositol 4,5-bisphosphate 3-kinase catalytic subunit gamma isoform, sequence (P48736 whole entry, canonical isoform): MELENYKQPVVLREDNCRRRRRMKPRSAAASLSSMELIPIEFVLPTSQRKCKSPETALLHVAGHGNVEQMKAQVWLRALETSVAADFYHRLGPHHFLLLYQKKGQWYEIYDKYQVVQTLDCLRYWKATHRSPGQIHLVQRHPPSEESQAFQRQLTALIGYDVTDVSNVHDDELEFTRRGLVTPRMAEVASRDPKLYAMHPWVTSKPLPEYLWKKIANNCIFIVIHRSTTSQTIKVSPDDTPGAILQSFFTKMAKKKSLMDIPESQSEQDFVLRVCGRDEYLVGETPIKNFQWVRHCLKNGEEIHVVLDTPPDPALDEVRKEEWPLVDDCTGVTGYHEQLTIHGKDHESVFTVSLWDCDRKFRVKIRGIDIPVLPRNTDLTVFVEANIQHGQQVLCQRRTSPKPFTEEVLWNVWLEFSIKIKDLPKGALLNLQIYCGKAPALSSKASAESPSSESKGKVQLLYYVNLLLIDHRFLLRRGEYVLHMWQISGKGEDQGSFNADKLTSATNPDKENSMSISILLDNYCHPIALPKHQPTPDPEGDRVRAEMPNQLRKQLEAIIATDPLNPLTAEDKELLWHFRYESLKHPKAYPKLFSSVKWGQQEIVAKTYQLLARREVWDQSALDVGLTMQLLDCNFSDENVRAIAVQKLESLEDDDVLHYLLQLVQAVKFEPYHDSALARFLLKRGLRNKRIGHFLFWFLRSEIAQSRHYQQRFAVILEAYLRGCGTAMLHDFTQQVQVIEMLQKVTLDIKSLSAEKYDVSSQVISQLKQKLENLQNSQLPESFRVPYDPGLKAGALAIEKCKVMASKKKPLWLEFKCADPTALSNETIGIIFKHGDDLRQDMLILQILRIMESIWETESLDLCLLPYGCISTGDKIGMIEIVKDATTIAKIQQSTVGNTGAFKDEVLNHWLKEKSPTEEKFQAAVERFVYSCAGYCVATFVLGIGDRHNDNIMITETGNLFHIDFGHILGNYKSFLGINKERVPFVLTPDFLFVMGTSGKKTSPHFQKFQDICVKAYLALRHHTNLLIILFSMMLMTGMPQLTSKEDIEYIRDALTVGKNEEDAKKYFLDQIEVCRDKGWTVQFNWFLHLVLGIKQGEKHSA
Mitogen-activated protein kinase 3, sequence (P27361 whole entry): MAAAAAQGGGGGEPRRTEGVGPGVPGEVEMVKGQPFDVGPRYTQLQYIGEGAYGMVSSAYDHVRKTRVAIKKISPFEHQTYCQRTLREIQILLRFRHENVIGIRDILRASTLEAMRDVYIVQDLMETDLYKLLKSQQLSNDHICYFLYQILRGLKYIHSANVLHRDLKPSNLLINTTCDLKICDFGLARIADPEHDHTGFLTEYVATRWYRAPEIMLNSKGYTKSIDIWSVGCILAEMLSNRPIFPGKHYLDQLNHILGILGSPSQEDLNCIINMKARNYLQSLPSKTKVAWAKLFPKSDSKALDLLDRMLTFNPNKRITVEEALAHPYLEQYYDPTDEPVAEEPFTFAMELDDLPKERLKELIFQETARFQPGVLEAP

One may read the EC50 as the concentration that produces a half-maximal response. Low values mean greater potency, high ones weaker potency. Regarding `N#Cc1c(O)c2c(-c3ccccc3)csc2[nH]c1=O`, the EC50 in test [1] stood at 38000 nM. Regarding `N#Cc1c(O)c2c(-c3ccc(-c4ccccc4O)cc3)csc2[nH]c1=O`, in test [1], the EC50 came to 800 nM.

The term IC50 denotes the concentration needed to halve the response being measured. On to `COc1ccc([C@H]2OC[C@H]3[C@@H]2CO[C@@H]3c2cc(OC)c(OC)c(OC)c2)cc1OC`, for which the midpoint of inhibition in test [2], the IC50, lay at 87 nM. Consider `O=C(Nc1ccc(F)cc1F)[C@H](NC(=S)Nc1cc(C(F)(F)F)cc(C(F)(F)F)c1)c1ccccc1`, for which a half-maximal response in test [3] (EC50) required 24.1 nM.

As usually defined, the Ki is the equilibrium dissociation constant of an inhibitor or competing ligand from its target. Turning to `c1cc(-c2cnn3cc(-c4ccc(OCCN5CCCCC5)cc4)cnc23)ccn1` [DORSOMORPHIN], the Ki in test [4] came to 109 nM. As for `CCc1cc(N2CCN(C)CC2)ccc1Nc1ncc(C(F)(F)F)c(NCCCN2CCOCCC2=O)n1` [INLEXISERTIB], the IC50 in test [5] came out at 9 nM. `CC(C)NC[C@@H](C(=O)N1CCN(c2ncnc3c2[C@H](C)C[C@H]3O)CC1)c1ccc(Cl)cc1` [IPATASERTIB] returned an IC50 in test [6] of 1400 nM.

On to `C=CCN(/C=C1/C(=O)O[C@H](COC)[C@@]2(C)C1=C(O)C(=O)C1=C2[C@H](OC(C)=O)C[C@]2(C)C(=O)CC[C@@H]12)CC=C` [SONOLISIB], for which the IC50 was found to be 0.1 nM in test [6], 1 nM in test [7] and 2.9 nM in test [8]. The compound `Cc1nc(-c2cn3c(n2)-c2ccc(-c4cnn(C(C)(C)C(N)=O)c4)cc2OCC3)n(C(C)C)n1` [TASELISIB] displayed an IC50 in test [7] of 0.91 nM.
